Experimental data taken from ChEMBL document CHEMBL5241112, “Insights into the recent progress in the medicinal chemistry of pyranopyrimidine analogs” (RSC Med Chem, 2022).
Converted amounts (≈) assume the structure as drawn.

What was measured:
Staphylococcus aureus [1] = assay: Antibacterial activity against Staphylococcus aureus MTCC 96 assessed as bacterial growth inhibition incubated for 24 hrs by broth microdilution method; type: functional
Staphylococcus aureus [2] = assay: Antibacterial activity against Staphylococcus aureus MLS-16 MTCC 2940 assessed as bacterial growth inhibition incubated for 24 hrs by broth microdilution method; type: functional
Aspergillus flavus [3] = assay: Antifungal activity against Aspergillus flavus assessed as inhibition of fungal growth; type: functional
Escherichia coli [4] = assay: Antibacterial activity against Escherichia coli assessed as diameter of inhibition zone; type: functional
Staphylococcus aureus [5] = assay: Antibacterial activity against Staphylococcus aureus assessed as diameter of inhibition zone; type: functional
Aspergillus niger [6] = assay: Antifungal activity against Aspergillus niger assessed as inhibition of fungal growth; type: functional
Salmonella typhimurium = assay: Antibacterial activity against Salmonella typhimurium assessed as diameter of inhibition zone; type: functional, Salmonella enterica subsp. enterica serovar Typhimurium
Urease = Urease (Canavalia ensiformis, UniProt P07374); assay: Inhibition of jack bean urease by phenol red method
Urease, sequence (P07374 whole entry): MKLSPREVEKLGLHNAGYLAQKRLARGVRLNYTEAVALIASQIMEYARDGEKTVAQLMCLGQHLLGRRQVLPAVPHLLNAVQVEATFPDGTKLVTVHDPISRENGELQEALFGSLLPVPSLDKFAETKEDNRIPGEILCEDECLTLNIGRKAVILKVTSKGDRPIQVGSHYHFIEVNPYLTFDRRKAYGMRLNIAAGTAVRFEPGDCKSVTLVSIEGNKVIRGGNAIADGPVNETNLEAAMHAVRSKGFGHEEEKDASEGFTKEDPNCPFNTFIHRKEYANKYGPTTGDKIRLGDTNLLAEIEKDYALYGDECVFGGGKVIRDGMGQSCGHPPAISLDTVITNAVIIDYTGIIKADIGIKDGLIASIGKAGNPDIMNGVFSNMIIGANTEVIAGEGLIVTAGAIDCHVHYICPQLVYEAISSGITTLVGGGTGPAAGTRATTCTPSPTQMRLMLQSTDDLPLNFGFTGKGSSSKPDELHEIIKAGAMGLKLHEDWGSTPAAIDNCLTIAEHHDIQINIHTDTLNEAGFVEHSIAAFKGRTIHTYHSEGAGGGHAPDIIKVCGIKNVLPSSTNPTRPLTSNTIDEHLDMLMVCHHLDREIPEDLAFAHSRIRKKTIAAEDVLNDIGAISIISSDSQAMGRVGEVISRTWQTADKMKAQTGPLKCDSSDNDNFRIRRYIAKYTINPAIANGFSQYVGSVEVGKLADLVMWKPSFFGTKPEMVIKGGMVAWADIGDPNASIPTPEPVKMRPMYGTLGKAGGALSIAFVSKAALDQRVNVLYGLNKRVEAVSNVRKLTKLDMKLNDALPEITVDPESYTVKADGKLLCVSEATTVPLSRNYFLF

Candida albicans [7] = assay: Antifungal activity against Candida albicans assessed as inhibition of fungal growth; type: functional
Bacillus subtilis = assay: Antibacterial activity against Bacillus subtilis assessed as diameter of inhibition zone; type: functional
[8] = biological target: Hydroxycarboxylic acid receptor 2 (Homo sapiens, UniProt Q8TDS4); assay: Agonist activity at human HCA2 expressed in human Flp-In-293 cells assessed as inhibition of forskolin-stimulated cAMP accumulation incubated for 30 mins by Lance cAMP assay; type: cell-based
Hydroxycarboxylic acid receptor 2, sequence (Q8TDS4 whole entry): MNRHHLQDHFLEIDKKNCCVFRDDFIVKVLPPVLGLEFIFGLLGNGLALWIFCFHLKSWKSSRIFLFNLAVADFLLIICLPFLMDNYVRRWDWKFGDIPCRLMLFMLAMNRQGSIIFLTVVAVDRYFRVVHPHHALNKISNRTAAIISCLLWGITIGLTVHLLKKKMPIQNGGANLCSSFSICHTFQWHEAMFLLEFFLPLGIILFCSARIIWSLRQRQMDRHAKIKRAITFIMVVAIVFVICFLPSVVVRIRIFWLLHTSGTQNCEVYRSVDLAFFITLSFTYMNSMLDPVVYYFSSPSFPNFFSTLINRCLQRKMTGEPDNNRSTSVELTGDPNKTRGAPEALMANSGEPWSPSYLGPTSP

[9] = biological target: T1, Free fatty acid receptor 3 (Homo sapiens, UniProt O14843); assay: Agonist activity at FFA3 (unknown origin) expressed in human Flp-In-293 cells assessed as inhibition of forskolin-stimulated cAMP accumulation incubated for 30 mins by Lance cAMP assay; type: cell-based
T1 sequence (O14843 whole entry): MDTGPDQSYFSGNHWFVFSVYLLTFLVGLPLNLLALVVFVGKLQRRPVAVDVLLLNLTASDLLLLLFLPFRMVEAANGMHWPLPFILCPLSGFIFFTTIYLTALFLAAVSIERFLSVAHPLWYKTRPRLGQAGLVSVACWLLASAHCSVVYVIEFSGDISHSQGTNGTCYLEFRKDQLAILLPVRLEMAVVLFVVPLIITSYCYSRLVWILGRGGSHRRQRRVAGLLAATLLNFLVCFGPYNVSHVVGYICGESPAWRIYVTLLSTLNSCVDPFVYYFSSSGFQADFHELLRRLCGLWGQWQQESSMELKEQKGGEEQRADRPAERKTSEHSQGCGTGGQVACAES

A549 = assay: Anticancer activity against human A549 cells assessed as reduction in cell viability incubated for 24 hrs by MTT assay; type: functional, cell-based; conditions: A549, 24 h
Klebsiella pneumoniae [10] = assay: Antibacterial activity against Klebsiella pneumoniae assessed as bacterial growth inhibition by broth microdilution method; type: functional
Staphylococcus aureus [11] = assay: Antibacterial activity against Staphylococcus aureus assessed as bacterial growth inhibition by broth microdilution method; type: functional
Escherichia coli [12] = assay: Antibacterial activity against Escherichia coli assessed as bacterial growth inhibition by broth microdilution method; type: functional
Pseudomonas aeruginosa [13] = assay: Antibacterial activity against Pseudomonas aeruginosa assessed as bacterial growth inhibition by broth microdilution method; type: functional
Aspergillus flavus [14] = assay: Antifungal activity against Aspergillus flavus assessed as fungal growth inhibition by broth microdilution method; type: functional
Candida albicans [15] = assay: Antifungal activity against Candida albicans assessed as fungal growth inhibition by broth microdilution method; type: functional
Staphylococcus aureus [16] = assay: Antimicrobial activity against Staphylococcus aureus assessed as diameter of inhibition zone at 1 mg/ml incubated for 48 hrs by agar disk diffusion method; type: functional; conditions: read-out: DIZ
Aspergillus niger [17] = assay: Antifungal activity against Aspergillus niger assessed as diameter of inhibition zone at 1 mg/ml incubated for 72 to 91 hrs by agar disk diffusion method; type: functional; conditions: time 72-91 hrs, read-out: DIZ
Pseudomonas aeruginosa [18] = assay: Antimicrobial activity against Pseudomonas aeruginosa assessed as diameter of inhibition zone at 1 mg/ml incubated for 48 hrs by agar disk diffusion method; type: functional; conditions: read-out: DIZ
Penicillium chrysogenum = assay: Antifungal activity against Penicillium chrysogenum assessed as diameter of inhibition zone at 1 mg/ml incubated for 72 to 91 hrs by agar disk diffusion method; type: functional; conditions: time 72-91 hrs, read-out: DIZ
Escherichia coli [19] = assay: Antimicrobial activity against Escherichia coli assessed as diameter of inhibition zone at 1 mg/ml incubated for 48 hrs by agar disk diffusion method; type: functional; conditions: read-out: DIZ
Klebsiella pneumoniae [20] = assay: Antimicrobial activity against Klebsiella pneumoniae assessed as diameter of inhibition zone at 1 mg/ml incubated for 48 hrs by agar disk diffusion method; type: functional; conditions: read-out: DIZ
Bacillus cereus = assay: Antimicrobial activity against Bacillus cereus assessed as diameter of inhibition zone at 1 mg/ml incubated for 48 hrs by agar disk diffusion method; type: functional; conditions: read-out: DIZ
[21] = test system: Mycobacterium tuberculosis; assay: Antitubercular activity against Mycobacterium tuberculosis H37Rv assessed as bacterial growth inhibition at 250 ug/ml; type: functional
[22] = test system: Mycobacterium tuberculosis; assay: Antitubercular activity against Mycobacterium tuberculosis H37Rv assessed as bacterial growth inhibition at 100 ug/ml; type: functional
Klebsiella pneumoniae [23] = assay: Antimicrobial activity against Klebsiella pneumoniae ATCC 15380 assessed as diameter of inhibition zone at 20 mg/ml incubated for 24 hrs by disk diffusion method; type: functional; conditions: read-out: DIZ

`Cc1cc2c(c(=O)o1)C(c1ccccc1)c1c(Nc3cccc([N+](=O)[O-])c3)ncnc1O2` (centres undefined) gave an MIC (Staphylococcus aureus [1]) of 7.8 µg/mL (≈ 18.2 µM) and an MIC (Staphylococcus aureus [2]) of 15.6 µg/mL (≈ 36.4 µM).

In the case of `N#CC1=C(N)Oc2[nH]c(=O)[nH]c(=O)c2C1c1ccc(Cl)cc1` (centres undefined), the MIC (Aspergillus flavus [3]) is reported as 150 µg/mL (≈ 474 µM), the “diameter of the inhibition zone (DIZ)” value (Escherichia coli [4]) is reported as 16 mm and the “diameter of the inhibition zone (DIZ)” value (Staphylococcus aureus [5]) is reported as 18 mm. The MIC (Aspergillus niger [6]) was 162 µg/mL (≈ 513 µM), the “diameter of the inhibition zone (DIZ)” value (Salmonella typhimurium) was 20 mm and the IC50 (Urease) was 49700 nM. For the same compound, the MIC (Candida albicans [7]) was 125 µg/mL (≈ 395 µM) and the “diameter of the inhibition zone (DIZ)” value (Bacillus subtilis) was 16 mm.

With `CCCc1cc(=O)oc2[nH]c(=S)[nH]c(=O)c12` the EC50 [8] was 51 nM and the EC50 [9] was 220 nM.

`Cc1cc(=O)oc2[nH]c(=S)[nH]c(=O)c12` showed an EC50 [8] of 51 nM and an EC50 [9] of 220 nM.

For `CCCCc1cc(=O)oc2[nH]c(=O)[nH]c(=O)c12`, the EC50 [9] was 220 nM.

`CCOC(=O)C1=C(C)Oc2nc(C)n(Cc3cn(-c4ccc(C(C)=O)cc4)nn3)c(=O)c2C1c1ccccc1` (centres undefined) gave an IC50 (A549) of 6740 nM.

In the case of `CCO/C=N/C1=C(C#N)C(c2ccc(F)cc2)c2c(n(C)c(=O)n(C)c2=O)O1` (centres undefined), the MIC (Klebsiella pneumoniae [10]) is reported as 6.25 µg/mL (≈ 16.3 µM), the MIC (Staphylococcus aureus [11]) is reported as 6.25 µg/mL (≈ 16.3 µM) and the MIC (Escherichia coli [12]) is reported as 6.25 µg/mL (≈ 16.3 µM). The MIC (Pseudomonas aeruginosa [13]) was 6.25 µg/mL (≈ 16.3 µM), the MIC (Aspergillus flavus [14]) was 3.12 µg/mL (≈ 8.12 µM) and the MIC (Candida albicans [15]) was 3.12 µg/mL (≈ 8.12 µM).

With `COC(=O)C1=C(N)Oc2[nH]c(=S)[nH]c(=O)c2C1c1ccccc1Cl` (centres undefined) the zone of inhibition at 1000 µg/mL (Staphylococcus aureus [16]) was 11 mm, the zone of inhibition at 1000 µg/mL (Aspergillus niger [17]) was 0 mm and the zone of inhibition at 1000 µg/mL (Pseudomonas aeruginosa [18]) was 4 mm. For the same compound, the zone of inhibition at 1000 µg/mL (Penicillium chrysogenum) was 0 mm and the zone of inhibition at 1000 µg/mL (Escherichia coli [19]) was 9 mm.

Compound `COc1ccc(C2c3c(Nc4ccccc4)ncnc3Oc3cc(C)oc(=O)c32)cc1` (centres undefined) has an MIC (Staphylococcus aureus [1]) of 7.8 µg/mL (≈ 18.9 µM).

Compound `COC(=O)C1=C(N)Oc2[nH]c(=S)[nH]c(=O)c2C1c1ccc(OC)cc1` (centres undefined) has a zone of inhibition at 1000 µg/mL (Staphylococcus aureus [16]) of 16 mm, a zone of inhibition at 1000 µg/mL (Pseudomonas aeruginosa [18]) of 16 mm and a zone of inhibition at 1000 µg/mL (Penicillium chrysogenum) of 12 mm. The zone of inhibition at 1000 µg/mL (Klebsiella pneumoniae [20]) was 18 mm, the zone of inhibition at 1000 µg/mL (Bacillus cereus) was 19 mm and the zone of inhibition at 1000 µg/mL (Escherichia coli [19]) was 15 mm.

`CCO/C=N/C1=C(C#N)C(c2ccc(Cl)cc2)c2c(n(C)c(=O)n(C)c2=O)O1` (centres undefined) gave an MIC (Klebsiella pneumoniae [10]) of 6.25 µg/mL (≈ 15.6 µM), an MIC (Staphylococcus aureus [11]) of 6.25 µg/mL (≈ 15.6 µM) and an MIC (Escherichia coli [12]) of 6.25 µg/mL (≈ 15.6 µM). The MIC (Pseudomonas aeruginosa [13]) was 6.25 µg/mL (≈ 15.6 µM), the MIC (Aspergillus flavus [14]) was 3.12 µg/mL (≈ 7.78 µM) and the MIC (Candida albicans [15]) was 3.12 µg/mL (≈ 7.78 µM).

In the case of `CO[C@H]1/C=C/O[C@@]2(C)Oc3c(C)c(O)c4c(O)c(c(/C=N/N5CCN(C)CC5)c(O)c4c3C2=O)NC(=O)/C(C)=C\C=C\[C@H](C)[C@H](O)[C@@H](C)[C@@H](O)[C@@H](C)[C@H](OC(C)=O)[C@@H]1C` [RIFAMPIN], the inhibition at 250 µg/mL [21] is reported as 98% and the inhibition at 100 µg/mL [22] is reported as 98%.

Work on `CCOC(=O)C1=C(C)Oc2nc(C)n(Cc3cn(-c4ccc(OC)cc4[N+](=O)[O-])nn3)c(=O)c2C1c1ccccc1` (centres undefined) yielded an IC50 (A549) of 5760 nM.

For `Cc1cc2c(c(=O)o1)C(c1ccccc1)c1c(Nc3ccc([N+](=O)[O-])cc3)ncnc1O2` (centres undefined), the MIC (Staphylococcus aureus [1]) was 7.8 µg/mL (≈ 18.2 µM) and the MIC (Staphylococcus aureus [2]) was 15.6 µg/mL (≈ 36.4 µM).

`COC(=O)C1=C(N)Oc2[nH]c(=S)[nH]c(=O)c2C1c1ccc(OC)c(OC)c1` (centres undefined) was tested, and the zone of inhibition at 1000 µg/mL (Staphylococcus aureus [16]) was 13 mm, the zone of inhibition at 1000 µg/mL (Aspergillus niger [17]) was 0 mm and the zone of inhibition at 1000 µg/mL (Pseudomonas aeruginosa [18]) was 12 mm. It also gave a zone of inhibition at 1000 µg/mL (Penicillium chrysogenum) of 12 mm, a zone of inhibition at 1000 µg/mL (Klebsiella pneumoniae [20]) of 14 mm and a zone of inhibition at 1000 µg/mL (Bacillus cereus) of 15 mm. The zone of inhibition at 1000 µg/mL (Escherichia coli [19]) was 16 mm.

With `COC(=O)C1=C(N)Oc2[nH]c(=S)[nH]c(=O)c2C1c1ccc(C)cc1` (centres undefined) the zone of inhibition at 1000 µg/mL (Staphylococcus aureus [16]) was 15 mm, the zone of inhibition at 1000 µg/mL (Aspergillus niger [17]) was 23 mm and the zone of inhibition at 1000 µg/mL (Pseudomonas aeruginosa [18]) was 21 mm. It also gave a zone of inhibition at 1000 µg/mL (Penicillium chrysogenum) of 23 mm, a zone of inhibition at 1000 µg/mL (Klebsiella pneumoniae [20]) of 19 mm and a zone of inhibition at 1000 µg/mL (Bacillus cereus) of 12 mm. The zone of inhibition at 1000 µg/mL (Escherichia coli [19]) was 16 mm.

`Cc1ccc(C2C(C#N)=C(N)Oc3[nH]c(=O)[nH]c(=O)c32)o1` (centres undefined) gave a zone of inhibition at 20000 µg/mL (Klebsiella pneumoniae [23]) of 16 mm.

`COC(=O)C1=C(N)Oc2[nH]c(=S)[nH]c(=O)c2C1c1ccc([N+](=O)[O-])cc1` (centres undefined) showed a zone of inhibition at 1000 µg/mL (Staphylococcus aureus [16]) of 17 mm, a zone of inhibition at 1000 µg/mL (Aspergillus niger [17]) of 23 mm and a zone of inhibition at 1000 µg/mL (Pseudomonas aeruginosa [18]) of 20 mm. For the same compound, the zone of inhibition at 1000 µg/mL (Penicillium chrysogenum) was 12 mm, the zone of inhibition at 1000 µg/mL (Klebsiella pneumoniae [20]) was 17 mm and the zone of inhibition at 1000 µg/mL (Bacillus cereus) was 21 mm. It also gave a zone of inhibition at 1000 µg/mL (Escherichia coli [19]) of 17 mm.

In the case of `O=c1cc(CCCCCl)c2c(=O)[nH]c(=S)[nH]c2o1`, the EC50 [8] is reported as 51 nM and the EC50 [9] is reported as 220 nM.
